As a reminder, the EC50 is the concentration at which the effect is half-maximal. In general, IC50 refers to the concentration at which inhibition is half-maximal. A word on the AC50: it is the concentration at which the activity in the assay is half-maximal.

We go through 2 compounds from ChEMBL document CHEMBL1201862, “PubChem BioAssay data set” (2004).

Assay [1] can be described thus: Luminescence Cell-Based Dose Response HTS to Identify Inhibitors of 5'UTR Stem-Loop Driven Prion Protein mRNA Translation in H4 Neuroglioblastoma Cells. [Related pubchem assays: 1827 (Project Summary), 1813 (Primary HTS)]. The class given is functional.
A further assay addresses Beta-galactosidase (Escherichia coli, UniProt Q8VNN2). In words: PubChem AID 485352. The assay is classed as functional.
Another assay deals with T1, Streptokinase A (Streptococcus pyogenes serotype M1, UniProt P10520).
T1 sequence (P10520 whole entry): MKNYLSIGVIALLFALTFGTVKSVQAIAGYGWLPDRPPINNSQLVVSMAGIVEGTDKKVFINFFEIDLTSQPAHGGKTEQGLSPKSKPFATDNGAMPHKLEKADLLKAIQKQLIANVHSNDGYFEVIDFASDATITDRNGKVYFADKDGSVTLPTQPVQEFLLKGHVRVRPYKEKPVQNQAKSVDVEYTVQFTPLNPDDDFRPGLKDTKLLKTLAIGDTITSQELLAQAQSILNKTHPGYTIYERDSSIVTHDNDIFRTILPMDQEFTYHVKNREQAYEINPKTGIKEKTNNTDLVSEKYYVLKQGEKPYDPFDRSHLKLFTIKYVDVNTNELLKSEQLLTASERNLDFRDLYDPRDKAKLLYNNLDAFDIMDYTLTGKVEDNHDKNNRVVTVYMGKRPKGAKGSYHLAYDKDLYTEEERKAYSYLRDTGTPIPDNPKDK
In words: viability-normalized secreted streptokinase activity reduction – plasminogen activation absorbance, OD405, dose response (AID 1914).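 Note: secreted streptokinase activity via plasminogen activation per viability signal from cell pellet.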 The assay is classed as functional, Streptococcus pyogenes M1 GAS.

For another assay, the target named is Large T antigen (Simian virus 40, UniProt P03070). The class given is functional, Betapolyomavirus macacae.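 Note: Confirmatory-stage PubChem screen for compounds that inhibit SV40 T antigen.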
Chain of Large T antigen (P03070 whole entry, the tested form may be a part): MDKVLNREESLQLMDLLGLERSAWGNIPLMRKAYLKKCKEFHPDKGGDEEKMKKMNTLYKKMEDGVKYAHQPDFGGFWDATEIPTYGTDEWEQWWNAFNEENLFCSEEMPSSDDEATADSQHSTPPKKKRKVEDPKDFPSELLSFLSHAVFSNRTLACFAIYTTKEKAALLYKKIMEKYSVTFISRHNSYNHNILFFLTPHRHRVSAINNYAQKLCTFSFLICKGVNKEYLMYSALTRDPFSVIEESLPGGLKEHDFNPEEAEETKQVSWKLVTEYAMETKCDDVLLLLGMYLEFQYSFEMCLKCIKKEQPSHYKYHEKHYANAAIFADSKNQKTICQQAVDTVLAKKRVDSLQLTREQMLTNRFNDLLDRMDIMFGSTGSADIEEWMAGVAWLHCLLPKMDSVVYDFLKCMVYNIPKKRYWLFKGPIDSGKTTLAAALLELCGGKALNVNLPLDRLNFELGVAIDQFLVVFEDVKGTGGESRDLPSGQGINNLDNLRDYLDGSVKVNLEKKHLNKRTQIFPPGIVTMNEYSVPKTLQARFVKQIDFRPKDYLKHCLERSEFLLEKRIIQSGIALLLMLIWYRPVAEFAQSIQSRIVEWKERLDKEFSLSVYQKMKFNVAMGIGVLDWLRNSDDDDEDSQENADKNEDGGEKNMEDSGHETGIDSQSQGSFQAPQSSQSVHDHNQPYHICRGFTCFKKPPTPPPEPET
The next assay relates to CHO. Put plainly: CHO cell viability loss, potency – luminescence, cytotoxicity control for TLR9-MyD88 binding inhibitor project, dose response (AID 588339).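 Note: CHO cells stably coexpressing TLR9 and MyD88 fusions from primary screen; compound exposure lasted 48 hours before viability readout.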 The class given is functional, cell-based, hamster. The note with it: Cricetulus griseus.
Assay [2] deals with T2, Replicative DNA helicase DnaB (Mycobacterium tuberculosis, UniProt P9WMR3).
T2 sequence (P9WMR3 whole entry): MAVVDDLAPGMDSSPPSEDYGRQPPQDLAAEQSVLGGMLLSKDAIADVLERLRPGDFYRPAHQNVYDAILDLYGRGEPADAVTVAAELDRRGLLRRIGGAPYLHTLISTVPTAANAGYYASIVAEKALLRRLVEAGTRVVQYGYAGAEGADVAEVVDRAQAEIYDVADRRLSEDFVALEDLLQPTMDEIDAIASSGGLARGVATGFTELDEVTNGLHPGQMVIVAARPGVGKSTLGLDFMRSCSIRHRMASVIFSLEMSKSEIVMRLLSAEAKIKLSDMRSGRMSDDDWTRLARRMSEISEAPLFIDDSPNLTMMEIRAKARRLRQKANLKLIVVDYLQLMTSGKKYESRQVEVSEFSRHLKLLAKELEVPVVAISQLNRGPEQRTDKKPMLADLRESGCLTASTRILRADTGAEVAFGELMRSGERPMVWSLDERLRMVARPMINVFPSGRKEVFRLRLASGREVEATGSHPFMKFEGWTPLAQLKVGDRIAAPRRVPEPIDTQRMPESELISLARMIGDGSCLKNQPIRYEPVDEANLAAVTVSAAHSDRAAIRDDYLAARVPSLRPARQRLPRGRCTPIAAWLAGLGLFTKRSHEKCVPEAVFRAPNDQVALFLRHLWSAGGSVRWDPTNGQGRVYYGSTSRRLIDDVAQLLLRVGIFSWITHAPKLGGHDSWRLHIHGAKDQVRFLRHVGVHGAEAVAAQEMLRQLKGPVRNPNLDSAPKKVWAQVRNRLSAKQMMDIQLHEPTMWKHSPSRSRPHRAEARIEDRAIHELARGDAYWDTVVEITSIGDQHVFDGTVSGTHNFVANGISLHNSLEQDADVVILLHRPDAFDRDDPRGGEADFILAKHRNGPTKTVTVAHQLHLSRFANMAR
In words: DnaB intein splicing inhibitors, dose response, biochemical, cell-free fluorescence (AID 449749). The assay is classed as functional.

The next assay deals with T3, Protein RecA (Mycobacterium tuberculosis, UniProt P9WHJ3).
T3 sequence (P9WHJ3 whole entry): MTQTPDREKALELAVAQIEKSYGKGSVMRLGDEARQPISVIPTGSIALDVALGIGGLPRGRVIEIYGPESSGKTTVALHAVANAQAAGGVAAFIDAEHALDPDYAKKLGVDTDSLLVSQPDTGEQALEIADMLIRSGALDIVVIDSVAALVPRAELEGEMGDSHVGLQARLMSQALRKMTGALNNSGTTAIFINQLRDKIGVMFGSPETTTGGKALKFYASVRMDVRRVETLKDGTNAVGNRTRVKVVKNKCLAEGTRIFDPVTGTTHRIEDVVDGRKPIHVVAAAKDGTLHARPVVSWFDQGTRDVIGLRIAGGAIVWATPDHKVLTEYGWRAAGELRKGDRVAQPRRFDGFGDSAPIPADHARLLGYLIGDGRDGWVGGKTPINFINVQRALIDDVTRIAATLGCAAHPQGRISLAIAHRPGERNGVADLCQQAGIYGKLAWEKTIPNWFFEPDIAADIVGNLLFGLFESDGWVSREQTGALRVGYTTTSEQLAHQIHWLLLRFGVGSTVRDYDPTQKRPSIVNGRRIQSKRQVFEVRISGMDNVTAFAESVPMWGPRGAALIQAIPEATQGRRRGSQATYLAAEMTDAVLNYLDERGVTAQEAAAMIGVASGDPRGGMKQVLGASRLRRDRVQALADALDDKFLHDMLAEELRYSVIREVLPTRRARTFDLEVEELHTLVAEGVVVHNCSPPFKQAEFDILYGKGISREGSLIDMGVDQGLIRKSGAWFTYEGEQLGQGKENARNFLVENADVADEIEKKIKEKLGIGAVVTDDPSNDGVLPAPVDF
In words: Fluorescence Cell-Free Homogeneous Dose Retest to Identify Inhibitors of RecA-Intein Splicing Activity. [Related pubchem assays (depositor defined):AID2097, AID2223, AID489010, AID492950]. The assay is classed as functional.

Assay [3] is described as follows: reduction of Shn3 3'UTR-driven luciferase in osteoblasts – cell-based, Clone20 osteoblasts, firefly luciferase, cherry-picked, dose response (AID 624132).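 Note: firefly luciferase luminescence from reporter carrying the Shn3 3'UTR in osteoblasts.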 The class given is functional.
The nature of assay [4]: loss of viability in HepG2 cells – cell-based, CellTiter-Glo, cherry-picked, cytotoxicity control for Shn3 inhibitor project, dose response (AID 624134). The assay is classed as functional.
The target of the next assay is Fatty acid synthase (Homo sapiens, UniProt P49327). In words: inhibition of human FAS-TE enzyme activity – biochemical, endpoint fluorescence intensity, uHTS hits, dose response (AID 624327).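 Note: fluorescence from hydrolysis of an O-methyl fluorescein acyl ester substrate by the enzyme.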 The assay is classed as functional.
Chain of Fatty acid synthase (P49327 whole entry): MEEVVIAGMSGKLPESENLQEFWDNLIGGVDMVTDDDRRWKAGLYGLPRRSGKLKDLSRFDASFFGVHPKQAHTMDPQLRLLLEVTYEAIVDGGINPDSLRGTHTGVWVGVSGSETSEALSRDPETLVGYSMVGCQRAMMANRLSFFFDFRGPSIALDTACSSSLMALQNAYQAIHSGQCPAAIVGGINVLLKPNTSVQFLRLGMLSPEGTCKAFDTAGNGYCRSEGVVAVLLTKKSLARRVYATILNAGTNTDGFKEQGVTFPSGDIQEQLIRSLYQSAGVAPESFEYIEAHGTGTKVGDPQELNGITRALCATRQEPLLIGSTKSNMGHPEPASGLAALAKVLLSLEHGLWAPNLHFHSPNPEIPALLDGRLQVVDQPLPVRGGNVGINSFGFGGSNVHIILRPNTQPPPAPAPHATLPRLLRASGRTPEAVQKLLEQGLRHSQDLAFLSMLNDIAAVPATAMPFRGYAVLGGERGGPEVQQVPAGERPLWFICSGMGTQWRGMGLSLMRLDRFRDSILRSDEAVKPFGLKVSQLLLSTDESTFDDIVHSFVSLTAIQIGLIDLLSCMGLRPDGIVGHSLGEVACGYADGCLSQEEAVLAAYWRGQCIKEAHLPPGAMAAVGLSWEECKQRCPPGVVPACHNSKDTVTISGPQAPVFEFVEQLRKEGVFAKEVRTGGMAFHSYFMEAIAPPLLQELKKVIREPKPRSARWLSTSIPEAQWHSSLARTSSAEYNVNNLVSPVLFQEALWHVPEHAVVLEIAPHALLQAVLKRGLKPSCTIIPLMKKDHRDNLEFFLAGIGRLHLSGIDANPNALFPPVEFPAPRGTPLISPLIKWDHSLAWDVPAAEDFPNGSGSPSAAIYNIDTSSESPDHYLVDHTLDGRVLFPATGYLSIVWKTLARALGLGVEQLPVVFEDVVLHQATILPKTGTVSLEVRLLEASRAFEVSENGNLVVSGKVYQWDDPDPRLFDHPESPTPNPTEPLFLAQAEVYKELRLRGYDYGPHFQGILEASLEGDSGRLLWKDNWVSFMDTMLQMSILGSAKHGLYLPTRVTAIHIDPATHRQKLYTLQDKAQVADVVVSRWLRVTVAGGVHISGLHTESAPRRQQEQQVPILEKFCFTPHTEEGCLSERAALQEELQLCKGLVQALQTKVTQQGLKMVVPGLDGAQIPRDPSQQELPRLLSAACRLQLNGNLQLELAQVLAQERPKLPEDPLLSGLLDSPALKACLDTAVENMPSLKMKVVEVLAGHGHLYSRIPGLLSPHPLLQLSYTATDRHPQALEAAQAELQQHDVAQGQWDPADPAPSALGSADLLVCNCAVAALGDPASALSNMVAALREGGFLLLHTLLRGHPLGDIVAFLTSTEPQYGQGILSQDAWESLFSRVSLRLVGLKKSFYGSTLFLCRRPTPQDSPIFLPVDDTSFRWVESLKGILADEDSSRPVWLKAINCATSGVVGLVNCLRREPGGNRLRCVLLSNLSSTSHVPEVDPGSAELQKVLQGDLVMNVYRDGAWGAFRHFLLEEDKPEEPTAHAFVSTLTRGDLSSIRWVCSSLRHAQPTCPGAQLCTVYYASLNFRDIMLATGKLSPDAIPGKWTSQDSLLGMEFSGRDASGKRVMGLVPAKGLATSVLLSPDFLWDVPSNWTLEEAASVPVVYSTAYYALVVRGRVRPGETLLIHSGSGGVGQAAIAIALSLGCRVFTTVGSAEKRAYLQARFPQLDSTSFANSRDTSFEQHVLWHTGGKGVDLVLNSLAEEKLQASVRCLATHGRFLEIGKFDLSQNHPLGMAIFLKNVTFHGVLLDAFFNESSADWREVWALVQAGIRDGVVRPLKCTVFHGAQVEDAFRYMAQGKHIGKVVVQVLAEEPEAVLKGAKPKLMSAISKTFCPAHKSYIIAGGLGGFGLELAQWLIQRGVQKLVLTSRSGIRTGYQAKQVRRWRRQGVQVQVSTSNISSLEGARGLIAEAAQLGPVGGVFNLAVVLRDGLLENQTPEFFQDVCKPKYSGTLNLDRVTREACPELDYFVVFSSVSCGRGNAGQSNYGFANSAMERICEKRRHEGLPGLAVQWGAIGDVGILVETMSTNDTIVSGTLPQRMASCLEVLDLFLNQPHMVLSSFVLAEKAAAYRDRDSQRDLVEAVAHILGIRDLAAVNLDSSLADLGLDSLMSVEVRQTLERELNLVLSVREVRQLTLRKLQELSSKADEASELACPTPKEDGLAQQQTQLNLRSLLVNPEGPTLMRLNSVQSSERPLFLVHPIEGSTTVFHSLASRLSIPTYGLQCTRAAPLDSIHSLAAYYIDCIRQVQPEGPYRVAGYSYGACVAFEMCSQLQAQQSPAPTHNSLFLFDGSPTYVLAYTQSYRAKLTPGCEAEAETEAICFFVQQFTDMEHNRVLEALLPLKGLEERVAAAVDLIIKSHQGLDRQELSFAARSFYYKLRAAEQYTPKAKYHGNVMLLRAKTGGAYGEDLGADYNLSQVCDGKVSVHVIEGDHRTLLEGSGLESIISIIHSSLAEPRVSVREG

Activity calls are given as the source filed them.

Chain of Beta-galactosidase (Q8VNN2 whole entry): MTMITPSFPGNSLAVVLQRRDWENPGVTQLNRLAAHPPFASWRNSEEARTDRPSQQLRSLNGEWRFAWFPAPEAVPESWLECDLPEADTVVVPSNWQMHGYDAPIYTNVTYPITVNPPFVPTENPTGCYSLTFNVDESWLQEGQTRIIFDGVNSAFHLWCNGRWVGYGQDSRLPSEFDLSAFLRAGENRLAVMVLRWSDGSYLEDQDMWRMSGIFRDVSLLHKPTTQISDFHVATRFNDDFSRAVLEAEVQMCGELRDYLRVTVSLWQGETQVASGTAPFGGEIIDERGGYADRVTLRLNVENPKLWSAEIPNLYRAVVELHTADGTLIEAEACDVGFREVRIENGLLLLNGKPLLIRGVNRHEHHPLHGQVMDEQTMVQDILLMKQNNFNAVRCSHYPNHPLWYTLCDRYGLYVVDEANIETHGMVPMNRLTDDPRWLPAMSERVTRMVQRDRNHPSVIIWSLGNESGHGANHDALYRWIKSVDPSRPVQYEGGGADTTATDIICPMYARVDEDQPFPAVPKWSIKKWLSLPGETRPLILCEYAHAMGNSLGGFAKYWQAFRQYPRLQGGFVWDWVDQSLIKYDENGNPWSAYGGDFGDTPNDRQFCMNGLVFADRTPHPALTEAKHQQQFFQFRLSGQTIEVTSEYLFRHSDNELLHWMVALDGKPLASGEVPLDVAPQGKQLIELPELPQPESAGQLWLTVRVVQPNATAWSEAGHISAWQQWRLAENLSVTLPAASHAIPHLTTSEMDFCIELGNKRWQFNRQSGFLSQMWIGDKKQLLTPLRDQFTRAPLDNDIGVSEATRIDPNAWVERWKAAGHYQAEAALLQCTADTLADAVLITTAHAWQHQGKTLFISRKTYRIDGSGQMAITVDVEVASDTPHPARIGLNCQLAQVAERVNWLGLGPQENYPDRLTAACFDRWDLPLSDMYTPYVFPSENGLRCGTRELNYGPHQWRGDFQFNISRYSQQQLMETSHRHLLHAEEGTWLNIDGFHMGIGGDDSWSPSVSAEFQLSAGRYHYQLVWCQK

`CCC1CCCCN1S(=O)(=O)c1ccc(NC(=O)c2nc(S(C)(=O)=O)ncc2Cl)cc1` (stereo not drawn): the EC50 in [1] was 11.8 µM (active); on Beta-galactosidase, > 40 µM (inactive); at Streptokinase A it was 0.66 µM (active); on Protein RecA, 1.11 µM (active). Moreover, the IC50 at Large T antigen was 44.8 µM (active); with CHO, 1.91 µM (active); at Fatty acid synthase it was 5.75 µM (active). The AC50 in assay [2] is 1.43 µM (active); in [3], 341 nM (active); in [4], 17 µM (active).
With `CC(=O)c1cccc2c1N=C(c1[nH]c3ccccc3c1O)C2=O`, the EC50 is 116 µM (active) at Streptokinase A and 2.76 µM (active) on Protein RecA. In addition, in [2], the AC50 was 3.1 µM (active).
